Experiments:
benzodiazepine receptor = experiment: Displacement of tritiated diazepam from benzodiazepine receptor (crude synaptosomal membranes of rat cerebral cortex); format: binding, male Wistar rats; details: tritiated diazepam 2 nM, 4° C., 20 minutes, Tris-HCl pH 7.4
Experimental: A displacement ability for benzodiazepine receptor is shown as follows:
A specific binding for benzodiazepine receptor was determined according to the methods described in European Journal of Pharmacology, vol. 51, p. 129 (1978) and Life Science, vol. 20, p. 1201 (1977).
In brief, the crude synaptosomal membranes were prepared from the cerebral cortex of 9 to 10 week-old male Wistar rats and were suspended in Tris-HCl buffer (pH 7.4). Various concentrations of test compounds and tritiated diazepam (final concentration: 2 nM) were incubated at 4° C. for 20 minutes. Then the suspension was filtered through Whatman GF/B glass fiber filters. Radioactivity of tritiated diazepam on the filters was measured by liquid scintillation spectrometry. Specific binding was defined as the difference in the amount of radioactivity bound in the absence and presence of 1.0×10^-6 M unlabeled diazepam.
According to the above experimental method, the affinity of the compounds of the present invention is evaluated as an ability to displace tritiated diazepam from the binding site, and is represented as Ki value.

mice = experiment: Acute toxicity in mice; format: in vivo
Text: The compound of Example 13 was orally or intraperitoneally administered to mice.

Compound | Ki (benzodiazepine receptor) | survival, acute toxicity (mice; intraperitoneal dose of 250 mg/kg) | survival, acute toxicity (mice; oral dose of 1000 mg/kg)
O=C1CC2CCc3ccc(Cl)cc3C2=NN1c1ccccc1 (stereo not shown) [Example 1, 9-chloro-2-phenyl-4,4a,5,6-tetrahydrobenzo[h]cinnolin-3(2H)-one] | 120 nM |  | 
O=c1cc2c(nn1-c1ccccc1)-c1cc(Cl)ccc1CC2 [Example 2, 9-chloro-2-phenyl-5,6-dihydrobenzo[h]cinnolin-3(2H)-one] | 190 nM |  | 
O=c1cc2c(nn1-c1ccccc1)-c1ccccc1CC2 [Example 3, 2-phenyl-5,6-dihydrobenzo[h]cinnolin-3(2H)-one] | 130 nM |  | 
Cc1ccc(N2N=C3c4cc(C)ccc4CCC3CC2=O)cc1 (stereo not shown) [Example 11, 9-Methyl-2-(4-methylphenyl)-4,4a,5,6-tetrahydrobenzo[h]cinnolin-3(2H)-one] | 16 nM |  | 
Cc1ccc2c(c1)C1=NN(c3ccc(Cl)cc3)C(=O)CC1CC2 (stereo not shown) [Example 12, 2-(4-Chlorophenyl)-9-methyl-4,4a,5,6-tetrahydrobenzo[h]cinnolin-3(2H)-one] | 26 nM |  | 
COc1ccc(N2N=C3c4cc(C)ccc4CCC3CC2=O)cc1 (stereo not shown) [Example 13, 2-(4-Methoxyphenyl)-9-methyl-4,4a,5,6-tetrahydrobenzo[h]cinnolin-3(2H)-one] | 6.6 nM | All mice survived | All mice survived

More lines, main results first:

Ki (benzodiazepine receptor) | Compound | survival, acute toxicity (mice; intraperitoneal dose of 250 mg/kg) | survival, acute toxicity (mice; oral dose of 1000 mg/kg)
8.2 nM | COc1ccc2c(c1)C1=NN(c3ccc(C)cc3)C(=O)CC1CC2 (stereo not shown) [Example 14, 9-Methoxy-2-(4-methylphenyl)-4,4a,5,6-tetrahydrobenzo[h]cinnolin-3(2H)-one] |  | 
28 nM | Cc1ccc(-n2nc3c(cc2=O)CCc2ccc(Cl)cc2-3)cc1 [Example 15, 9-Chloro-2-(4-methylphenyl)-5,6-dihydrobenzo[h]cinnolin-3(2H)-one] |  | 
14 nM | Cc1ccc(N2N=C3c4cc(Cl)ccc4CCC3CC2=O)cc1 (stereo not shown) [Example 16, 9-Chloro-2-(4-methylphenyl)-4,4a,5,6-tetrahydrobenzo[h]cinnolin-3(2H)-one] |  | 
47 nM | O=c1cc2c(nn1-c1ccc(Cl)cc1)-c1cc(Cl)ccc1CC2 [Example 17, 9-Chloro-2-(4-chlorophenyl)-5,6-dihydrobenzo[h]cinnolin-3(2H)-one] |  | 
90 nM | O=c1cc2c(nn1-c1ccc([N+](=O)[O-])cc1)-c1cc(Cl)ccc1CC2 [Example 18, 9-Chloro-2-(4-nitrophenyl)-5,6-dihydrobenzo[h]cinnolin-3(2H)-one] |  | 
45 nM | O=c1cc2c(nn1-c1ccc(Cl)cc1)-c1cc(F)ccc1CC2 [Example 19, 2-(4-Chlorophenyl)-9-fluoro-5,6-dihydrobenzo[h]cinnolin-3(2H)-one] |  | 
34 nM | O=C1CC2CCc3ccc(F)cc3C2=NN1c1ccc(Cl)cc1 (stereo not shown) [Example 20, 2-(4-Chlorophenyl)-9-fluoro-4,4a,5,6-tetrahydrobenzo[h]cinnolin-3(2H)-one] |  | 
220 nM | O=c1cc2c(nn1-c1ccccc1)-c1cc(F)ccc1CC2 [Example 30, 9-Fluoro-2-phenyl-5,6-dihydrobenzo[h]cinnolin-3(2H)-one] |  | 

Source: patent US4782057A, “Benzo[h]cinnoline compound, a method of preparing said compound and a pharmaceutical composition” (Yoshitomi Pharmaceutical Industries, Ltd., priority 1984, dated 1988)
